Experimental data as given in patent US10766888B1, “HMOX1 inducers” (Mitobridge Inc., priority 2019, dated 2020).
≈ marks a conversion by molar mass, not a printed value.

What was measured:
[1] = test system: Human Heme Oxygenase-1 (HMOX-1); assay: ELISA assay to measure human heme oxygenase-1 (HMOX-1) in HepG2 lysate; type: cell-based; conditions: human HMOX1 protein level in HepG2 lysate; * = average of 2 or more EC50 determinations; NA = Not Active; read-out: EC50
Outline: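 Treated HepG2 cells were lysed in PBS with 0.5% Triton X100, 1 mM EDTA and protease inhibitors, and lysates were diluted 1:20. HO-1 was measured by sandwich ELISA (biotinylated detection antibody, streptavidin-HRP, chemiluminescence) at room temperature against a standard curve from 20 ng/ml. EC50 and fold change were expressed relative to DMSO control.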

[2] = target: hERG channel (Homo sapiens, UniProt Q12809); assay: hERG manual patch clamp assay; type: cell-based; conditions: HEK 293 cells stably expressing hERG channel, pH 7.35, 10 μM compound
Sequence of hERG channel (Q12809 whole entry): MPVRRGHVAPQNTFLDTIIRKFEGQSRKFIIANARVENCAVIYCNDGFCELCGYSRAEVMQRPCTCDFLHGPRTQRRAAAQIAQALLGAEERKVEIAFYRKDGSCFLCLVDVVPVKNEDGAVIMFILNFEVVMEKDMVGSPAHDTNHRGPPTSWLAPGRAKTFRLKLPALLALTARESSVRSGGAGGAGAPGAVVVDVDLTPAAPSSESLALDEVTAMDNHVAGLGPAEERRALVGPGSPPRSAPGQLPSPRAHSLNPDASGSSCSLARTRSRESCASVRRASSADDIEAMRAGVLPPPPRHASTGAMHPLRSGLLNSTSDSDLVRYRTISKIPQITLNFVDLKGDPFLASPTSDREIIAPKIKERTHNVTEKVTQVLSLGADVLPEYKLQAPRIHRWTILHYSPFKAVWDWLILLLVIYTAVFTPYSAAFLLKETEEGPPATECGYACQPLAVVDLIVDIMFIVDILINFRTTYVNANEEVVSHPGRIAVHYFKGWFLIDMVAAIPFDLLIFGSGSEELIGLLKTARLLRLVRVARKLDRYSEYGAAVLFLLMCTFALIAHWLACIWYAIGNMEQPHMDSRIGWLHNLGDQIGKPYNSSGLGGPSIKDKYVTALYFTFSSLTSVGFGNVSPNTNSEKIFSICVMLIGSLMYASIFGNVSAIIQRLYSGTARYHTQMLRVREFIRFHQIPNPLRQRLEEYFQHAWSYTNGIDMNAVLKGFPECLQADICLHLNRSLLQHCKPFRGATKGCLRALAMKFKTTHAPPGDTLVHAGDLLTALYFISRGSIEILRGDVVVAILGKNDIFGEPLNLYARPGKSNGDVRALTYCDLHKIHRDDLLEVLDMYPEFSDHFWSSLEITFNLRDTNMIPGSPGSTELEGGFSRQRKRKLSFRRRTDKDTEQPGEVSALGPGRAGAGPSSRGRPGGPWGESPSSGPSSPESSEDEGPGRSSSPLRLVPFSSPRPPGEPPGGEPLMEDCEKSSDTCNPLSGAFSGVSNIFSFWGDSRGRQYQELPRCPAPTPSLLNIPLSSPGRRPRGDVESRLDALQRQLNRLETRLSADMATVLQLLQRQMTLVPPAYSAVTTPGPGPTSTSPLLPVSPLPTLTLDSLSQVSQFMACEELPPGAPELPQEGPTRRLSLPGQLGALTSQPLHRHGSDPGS
Description: Cell Lines and Cell Culture
HEK 293 cell line stably expressing hERG channel (Cat # K1236) was purchased from Invitrogen. The cells were cultured in 85% DMEM, 10% dialyzed FBS, 0.1 mM NEAA, 25 mM HEPES, 100 U/mL Penicillin-Streptomycin and 5 μg/mL Blasticidin and 400 μg/mL Geneticin. Cells were split using TrypLE™ Express about three times a week, and maintained between ˜40% to ˜80% confluence. Before the assay, the cells were transferred onto the coverslips at 5×10^5 cells/per 6 cm cell culture dish and induced with doxycycline at 1 μg/mL for 48 hours.
• 1) External solution (in mM): 132 NaCl, 4 KCl, 3 CaCl2, 0.5 MgCl2, 11.1 glucose, and 10 HEPES (pH adjusted to 7.35 with NaOH) • 2) Internal solution (in mM): 140 KCl, 2 MgCl2, 10 EGTA, 10 HEPES and 5 MgATP (pH adjusted to 7.35 with KOH) • 3) hERG currents were tested in presence of 10 μM compound concentration with final concentration of DMSO of 0.1%. Experimental Procedure • 1) Removed the coverslip from the cell culture dish and placed it on the microscope stage in bath chamber. • 2) Located a desirable cell using the 10× objective. Located the tip of the electrode under the microscope using the 10× objective by focusing above the plane of the cells. Once the tip was in focus, advanced the electrode downwards towards the cell using the coarse controls of the manipulator, while simultaneously moving the objective to keep the tip in focus. • 3) When directly over the cell, switched to the 40× objective and used the fine controls of the manipulator to approach the surface of the cell in small steps. • 4) Applied gentle suction through the side-port of the electrode holder to form a gigaohm seal. • 5) Used the Cfast to remove the capacity current that was in coincidence with the voltage step. Obtained the whole cell configuration by applying repetitive, brief, strong suction until the membrane patch ruptured. • 6) Set membrane potential to −60 mV at this point to ensure that hERG channels were not • open. The spikes of capacity current should then be cancelled using the Cslow on the amplifier. 7) Set holding potential to −90 mV for 500 ms; recorded current at 50 kHz and filtered at 10 kHz. Leaking current was tested at −80 mV for 500 ms. • 8) The hERG current was elicited by depolarizing at +30 mV for 4.8 seconds and then the voltage was taken back to −50 mV for 5.2 seconds to remove the inactivation and observe the deactivating tail current. The maximum amount of tail current size was used to determine hERG current amplitude. • 9) Recorded current for 120 seconds to assess the current stability. Only stable cells with recording parameters above threshold were applied for the compound administrations. • 10) Firstly vehicle control was applied to the cells to establish the baseline. […] In order to ensure the good performance of cultured cells and operations, the positive control, Dofetilide, with 5 dose concentration was also used to test the same batch of cells. Data Analysis
The following criteria were used to determine data acceptability. • 1) Initial seal resistance >1 GΩ; • 2) Leak currents <50% of the control peak tail currents at any time; • 3) The peak tail amplitude >250 pA; • 4) Membrane resistance Rm>500 MΩ; • 5) Access resistance (Ra)<10 MΩ; • 6) Apparent run-down of peak current <2.5% per min.
Data that met the above criteria for hERG current quality were further analyzed as the following steps. • 1) Percent hERG current inhibition was calculated using the following equation. • Note: PatchMaster or Clampfit software was used to extract the peak current from the original data.
[formula] • 2) The dose response curve of test compounds was plotted with percentage of hERG current inhibition against the concentration of test compounds using Graphpad Prism 6.0, and fit to a sigmoid dose-response curve with a variable slope.

[3] = Kinetic solubility; type: physicochemical; conditions: Dulbecco's phosphate buffer saline (DPBS), aqueous buffer, kinetic from dmso stock, DPBS pH 7.4, 25° C., 200 μM test compound
Description: Example 144. Kinetic Solubility
10 μL of 10 mM DMSO stock solution were aliquotted to 490 μL of DMSO solution and separately 490 μL of Dulbecco's phosphate buffer saline, DPBS, pH 7.4 solution in 1.2 mL 96-well plates in duplicate. Final concentration was 200 μM of the test compound. Samples were incubated at 25° C. with shaking at 200 rpm for 16 h. Samples were centrifuged at 3500 rpm for 20 min at 25° C., and supernatant was submitted for HPLC analysis.
Kinetic solubility was measured using the following equation: […]

SMILES | EC50 [1] [nM] | solubility at 16 h [3] [µM] | inhibition at 10 µM [2] [%]
COCCOc1ccc2nc(Nc3nc4cc(C(=O)NCCO)ccc4n3C)oc2c1 [Example 57, N-(2-hydroxyethyl)-2-((6-(2-methoxyethoxy)benzo[d]oxazol-2-yl)amino)-1-methyl-1H-benzo[d]imidazole-5-carboxamide] | 1200 | 11.2 (≈ 4.76 µg/mL) | 15
CN(C)CC(=O)NCCNC(=O)c1ccc2c(c1)nc(Nc1nc3ccccc3o1)n2C [Example 19, 2-(benzo[d]oxazol-2-ylamino)-N-(2-(2-(dimethylamino)acetamido)ethyl)-1-methyl-1H-benzo[d]imidazole-5-carboxamide] | 1800 |  | 29
Cn1c(Nc2nc3ccc(OC(F)(F)F)cc3o2)nc2cc(C(=O)NCCO)ccc21 [Example 53, N-(2-hydroxyethyl)-1-methyl-2-((6-(trifluoromethoxy)benzo[d]oxazol-2-yl)amino)-1H-benzo[d]imidazole-5-carboxamide] | 1100 | 7.3 (≈ 3.18 µg/mL) | 70
CC1CCc2nc(Nc3nc4cc(C(=O)NCCOCCO)ccc4n3C)sc2C1 (stereo not shown) [Ex 7, N-(2-(2-hydroxyethoxy)ethyl)-1-methyl-2-((6-methyl-4,5,6,7-tetrahydrobenzo[d]thiazol-2-yl)amino)-1H-benzo[d]imidazole-5-carboxamide] |  |  | 6
Cn1c(Nc2nc3ccc(OC(F)F)cc3o2)nc2cc(C(=O)O)ccc21 [Example 62, 2-((6-(difluoromethoxy)benzo[d]oxazol-2-yl)amino)-1-methyl-1H-benzo[d]imidazole-5-carboxylic acid] | 5100 | 16.2 (≈ 6.06 µg/mL) | 13
CN(C)CCONC(=O)c1ccc2c(c1)nc(Nc1nc3ccc(C(F)(F)F)cc3o1)n2C [Example 122, N-(2-(dimethylamino)ethoxy)-1-methyl-2-((6-(trifluoromethyl)benzo[d]oxazol-2-yl)amino)-1H-benzo[d]imidazole-5-carboxamide] | 400 | 5.1 (≈ 2.36 µg/mL) | 87
Cn1c(Nc2nc3ccc(Cl)cc3o2)nc2cc(C(=O)NCCO)ccc21 [Example 97, 2-((6-chlorobenzo[d]oxazol-2-yl)amino)-N-(2-hydroxyethyl)-1-methyl-1H-benzo[d]imidazole-5-carboxamide] | 1400 | < 5 | 
Cn1c(Nc2nc3ccc(OCCO)cc3o2)nc2cc(C(=O)NCCO)ccc21 [Example 103, 2-((6-(2-hydroxyethoxy)benzo[d]oxazol-2-yl)amino)-N-(2-hydroxyethyl)-1-methyl-1H-benzo[d]imidazole-5-carboxamide] | 3100 | > 20 | 
COCCONC(=O)c1ccc2c(c1)nc(Nc1nc3ccccc3o1)n2C [Example 119, 2-(benzo[d]oxazol-2-ylamino)-N-(2-methoxyethoxy)-1-methyl-1H-benzo[d]imidazole-5-carboxamide] | 600 | 0.5 (≈ 0.191 µg/mL) | 

Now from value to compound, other results behind:

EC50 [1] [nM] | solubility at 16 h [3] [µM] | SMILES | inhibition at 10 µM [2] [%]
2100 | > 20 | CC(O)CNC(=O)c1ccc2c(c1)nc(Nc1nc3ccccc3o1)n2C (stereo not shown) [Example 23, 2-(benzo[d]oxazol-2-ylamino)-N-(2-hydroxypropyl)-1-methyl-1H-benzo[d]imidazole-5-carboxamide] | 24
1300 | 6.9 (≈ 3.21 µg/mL) | Cn1c(Nc2nc3ccc(N4CCCC4)cc3o2)nc2cc(C(=O)NCCOCCO)ccc21 [Example 137, N-(2-(2-hydroxyethoxy)ethyl)-1-methyl-2-((6-(pyrrolidin-1-yl)benzo[d]oxazol-2-yl)amino)-1H-benzo[d]imidazole-5-carboxamide] | 18
700 | 12.4 | Cl.Cn1c(Nc2nc3ccccc3o2)nc2cc(C(=O)NCCN)ccc21 [Example 18, N-(2-aminoethyl)-2-(benzo[d]oxazol-2-ylamino)-1-methyl-1H-benzo[d]imidazole-5-carboxamide hydrochloride] | 12
700 | 11.7 (≈ 4.11 µg/mL) | Cn1c(Nc2nc3ccccc3o2)nc2cc(C(=O)NCCO)ccc21 [Example 16, 2-(benzo[d]oxazol-2-ylamino)-N-(2-hydroxyethyl)-1-methyl-1H-benzo[d]imidazole-5-carboxamide] | 35
 | 10.5 (≈ 4.14 µg/mL) | CN(C)CCONC(=O)c1ccc2c(c1)nc(Nc1nc3ccccc3o1)n2C [Example 123, 2-(benzo[d]oxazol-2-ylamino)-N-(2-(dimethylamino)ethoxy)-1-methyl-1H-benzo[d]imidazole-5-carboxamide] | 54
2900 |  | Cn1c(Nc2nc3cc(F)ccc3[nH]2)nc2cc(C(=O)O)ccc21 [Example 73, 2-((5-fluoro-1H-benzo[d]imidazol-2-yl)amino)-1-methyl-1H-benzo[d]imidazole-5-carboxylic acid] | 5
730 | 0.3 (≈ 0.14 µg/mL) | COCCNC(=O)c1cc2nc(Nc3nc4ccc(OC(F)(F)F)cc4o3)n(C)c2cc1F [Example 71, 6-fluoro-N-(2-methoxyethyl)-1-methyl-2-((6-(trifluoromethoxy)benzo[d]oxazol-2-yl)amino)-1H-benzo[d]imidazole-5-carboxamide] | 
2000 | 6.5 (≈ 2.48 µg/mL) | CC(O)CONC(=O)c1ccc2c(c1)nc(Nc1nc3ccccc3o1)n2C (stereo not shown) [Example 120, 2-(benzo[d]oxazol-2-ylamino)-N-(2-hydroxypropoxy)-1-methyl-1H-benzo[d]imidazole-5-carboxamide] | 
2900 | 10.6 (≈ 5.09 µg/mL) | Cn1c(Nc2nc3ccc(N4CCOCC4)cc3o2)nc2cc(C(=O)NCCOCCO)ccc21 [Example 136, N-(2-(2-hydroxyethoxy)ethyl)-1-methyl-2-((6-morpholinobenzo[d]oxazol-2-yl)amino)-1H-benzo[d]imidazole-5-carboxamide] | 
1300 | 0.3 (≈ 0.156 µg/mL) | COCCNC(=O)c1ccc2c(c1)nc(Nc1nc3ccc(OC(F)(F)F)cc3o1)n2CC1(O)COC1 [Example 94, 1-((3-hydroxyoxetan-3-yl)methyl)-N-(2-methoxyethyl)-2-((6-(trifluoromethoxy)benzo[d]oxazol-2-yl)amino)-1H-benzo[d]imidazole-5-carboxamide] | 
1400 | 3.5 (≈ 1.33 µg/mL) | COc1ccc2nc(Nc3nc4cc(C(=O)NCCO)ccc4n3C)oc2c1 [Example 92, N-(2-hydroxyethyl)-2-((6-methoxybenzo[d]oxazol-2-yl)amino)-1-methyl-1H-benzo[d]imidazole-5-carboxamide] | 
1400 | 6.7 (≈ 2.69 µg/mL) | CC1CCc2nc(Nc3nc4cc(C(=O)NOCCO)ccc4n3C)sc2C1 (stereo not shown) [Example 131, N-(2-hydroxyethoxy)-1-methyl-2-((6-methyl-4,5,6,7-tetrahydrobenzo[d]thiazol-2-yl)amino)-1H-benzo[d]imidazole-5-carboxamide] | 
